Key:
[1] = Particle size, PdI and zeta potential of mRNA-encapsulating LNPs by dynamic light scattering (Experimental Example 2); assay type: physicochemical
Description: An acidic buffer solution (total amount: 1080 µL) of nucleic acid was prepared by weighing 7.2 µg of mRNA solution (0.6 mg/mL) in a 5 mL tube and adding acidic malate buffer (20 mM, pH 3.0).
An acidic buffer solution of nucleic acid and an ethanol solution of lipid were each weighed in a syringe.
The particle size, PdI (Polydispersity Index), and zeta potential of the mRNA-encapsulating LNP prepared by the method of the above-mentioned 1 were measured by a dynamic light scattering method (Zetasizer Nano; Malvern).

[2] = tested on: liver; assay: In vivo gene expression, luciferase luminescence in the liver after tail vein administration (Experimental Example 4); settings: BALB/c mouse, mRNA 0.05 mg/kg; for amount of luminescence (photons/sec) in liver: tail vein, 4.5 hr after administration, LNP cationic lipid:DOPC:Chol:DMG-PEG2k = 52.5:7.5:40:1.5, prepared as in Experimental Example 2; for relative amount of luminescence: liver luminescence relative to cationic lipid of Comparative Example
Description: LNP encapsulating mRNA that expresses luciferase (cationic lipid:DOPC:Chol:DMG-PEG2k = 52.5:7.5:40:1.5 (molar ratio)) was prepared by the method described in [Experimental Example 2], 1.
(§1) The prepared each mRNA-encapsulating LNP dispersion was administered from the tail vein of BALB/c mouse (male, 5-week-old). The dose of mRNA was set to 0.05 mg per 1 kg body weight of the mouse, and the dose of the mRNA-encapsulating LNP dispersion was set to 10 µL per 1 g body weight of the mouse. After 4.5 hr from the administration of the mRNA-encapsulating LNP dispersion, a PBS solution of D-luciferin potassium was administered into the abdominal cavity of the mouse. The dose of D-luciferin potassium was set to 3 mg per mouse, and the dose of the PBS solution of D-luciferin potassium was set to 200 µL per mouse. After 15 min from the administration of the PBS solution of D-luciferin potassium, the mouse was euthanized, and the liver was isolated. The luminescence in the liver was quantified using an in vivo imaging system (IVIS) with an exposure of 10 sec. The amount of luminescence in the liver was quantified by image analysis using Live Imaging software attached to IVIS. The amount of luminescence (photons/sec) was calculated from the acquired image and used as an index of gene expression activity. The cationic lipids used, the luminescence intensity in the liver, and the relative luminescence intensity (= luminescence intensity in the liver when cationic lipid of Example was used/luminescence intensity in the liver when cationic lipid of Comparative Example was used) are shown in Table 7-1 to Table 7-3. "E+0a" (a: integer) indicated in Table 7-1 to Table 7-3 means "10^a". For example, "3.94E+09" means "3.94×10^9". […]

[3] = tested on: HeLa cells; assay: In vitro gene expression in HeLa cells (luciferase mRNA-encapsulating LNP, cumulative luminescence in 24 hr); settings: for cumulative luciferase luminescence intensity (RLU) in 24 hr: LNP cationic lipid:DOPC:Chol:DMG-PEG2k = 50:10:40:1, mRNA 0.2 µg per dish, E+0a means 10^a; for relative luminescence intensity: cumulative intensity in 24 hr relative to cationic lipid of Comparative Example
Description: LNP encapsulating mRNA that expresses luciferase (cationic lipid:DOPC:Chol:DMG-PEG2k = 50:10:40:1 (molar ratio)) was prepared by the method described in [Experimental Example 2], 1.
HeLa cells, which are human cervical cancer cells, were seeded in a 3.5 cm dish at 5.0×10^4 cells/2 mL/Dish 24 hours before transfection. After 24 hr, the medium was changed to a culture medium (D-MEM) containing 0.1 mM D-luciferin. The prepared mRNA-encapsulating LNP was diluted with PBS to an mRNA concentration of about 1 µg/mL. The diluted mRNA-encapsulating LNP solution (about 200 µL, mRNA: 0.2 µg) was added to a 3.5 cm dish, and set in an incubator luminometer KronosDio. The luminescence intensity of luciferase was measured for 2 min every one hour. The cumulative luciferase luminescence intensity in 24 hr was calculated from the obtained time change of expression. […] In Comparative Example, the cationic lipid described in Table 2 was used.

[4] = Particle size, PdI and zeta potential of mRNA-encapsulating LNPs by dynamic light scattering (Experimental Example 6); assay type: physicochemical; settings: mRNA-encapsulating LNP; for zeta potential (mV): cationic lipid:DOPC:Chol=49:7.5:42.5:1, dispersion in TBS (Tables 8-1, 8-2); for PdI / particle size (nm): cationic lipid:DOPC:Chol=49:7.5:42.5:1, dispersion in TBS, dynamic light scattering (Tables 8-1, 8-2)
Description: An acidic buffer solution (total amount: 1300 µL) of nucleic acid was prepared by weighing 6.5 µg of mRNA solution (0.6 mg/mL) in a 5 mL tube and adding acidic citrate buffer (20 mM, pH 5.0).
An acidic buffer solution of nucleic acid and an ethanol solution of lipid were each weighed in a syringe. […] The obtained concentrate was diluted with TBS to a lipid concentration of 2 mM to give a dispersion containing LNP.
The particle size, PdI (Polydispersity Index), and zeta potential of the mRNA-encapsulating LNP prepared by the method of the above-mentioned 1 were measured by a dynamic light scattering method (Zetasizer Nano; Malvern). […]

[5] = tested on: liver; assay: In vivo gene expression, luciferase luminescence in the liver after tail vein administration (Experimental Example 7); settings: BALB/c mouse, mRNA 0.05 mg/kg
Description: LNP encapsulating mRNA that expresses luciferase (cationic lipid:DOPC:Chol:DMG-PEG2k = 52.5:7.5:40:1.5 (molar ratio)) was prepared by the method described in [Experimental Example 6], 1.
as §1, with “9.” for “7-1 to Table 7-3. "E+0a" (a: integer) indicated in Table 7-1 to Table 7-3 means "10^a".”

[6] = mRNA-encapsulating LNP, cationic lipid:DOPC:Chol = 50:10:40 (molar ratio) + DMG-PEG2k about 1 mol, Polydispersity Index, dynamic light scattering
[7] = mRNA-encapsulating LNP, cationic lipid:DOPC:Chol = 50:10:40 (molar ratio) + DMG-PEG2k about 1 mol, Zetasizer Nano
[8] = mRNA-encapsulating LNP, cationic lipid:DOPC:Chol = 50:10:40 (molar ratio) + DMG-PEG2k about 1 mol, dynamic light scattering
[9] = mRNA-encapsulating LNP containing the cationic lipid, dispersion in PBS (Table 5-3)
[10] = mRNA-encapsulating LNP containing the cationic lipid, dispersion in PBS, dynamic light scattering (Table 5-3)

PdI [1, 6]	zeta potential (mV) [1, 7]	particle size (nm) [1, 8]	zeta potential (mV) [4]	PdI [4]	particle size (nm) [4]	zeta potential (mV) [1, 9]	PdI [1, 10]	particle size (nm) [1, 10]	SMILES	amount of luminescence (photons/sec) in liver [2]	relative amount of luminescence [2]	cumulative luciferase luminescence intensity (RLU) in 24 hr [3]	relative luminescence intensity [3]	amount of luminescence (photons/sec) in liver ([5]; tail vein, 4.5 hr after administration, LNP cationic lipid:DOPC:Chol:DMG-PEG2k = 52.5:7.5:40:1.5, prepared as in Experimental Example 6)	relative amount of luminescence ([5]; liver luminescence relative to cationic lipid of Comparative Example)
0.112	-4.68 mV	106.10 nm	–	–	–	–	–	–	CCCCCCCC/C=C\CCCCCCCC(=O)Oc1ccc(CC(=O)OCCC2CCN(CCSSCCN3CCC(CCOC(=O)Cc4ccc(OC(=O)CCCC(=O)OC[C@H](COC(=O)CCCCCCC)OC(=O)CCCCCCC)cc4)CC3)CC2)cc1 [compound 5]	3.76E+09 photons/sec	2.48	4.16E+07 RLU	2.25	–	–
0.073	-3.63 mV	94.42 nm	–	–	–	–	–	–	CCCCCCCC/C=C\CCCCCCCC(=O)Oc1ccc(CC(=O)OCCC2CCN(CCSSCCN3CCC(CCOC(=O)Cc4ccc(OC(=O)CCCC(=O)OC[C@H](COC(=O)CCCCC)OC(=O)CCCCC)cc4)CC3)CC2)cc1 [compound 13]	–	–	1.24E+08 RLU	6.72	–	–
0.067	-2.30 mV	123.30 nm	–	–	–	–	–	–	CCCCCC/C=C\COC(=O)CCCC(=O)Oc1ccc(CC(=O)OCCC2CCN(CCSSCCN3CCC(CCOC(=O)Cc4ccc(OC(=O)CCCC(=O)OC/C=C\CCCCCC)cc4)CC3)CC2)cc1 [compound 41]	1.73E+09 photons/sec	1.14	–	–	–	–
0.072	-3.98 mV	90.46 nm	-5.9 mV	0.17	128.2 nm	–	–	–	CCCCCC/C=C\COC(=O)CCCC(=O)Oc1ccc(CC(=O)OCCC2CCN(CCSSCCN3CCC(CCOC(=O)Cc4ccc(OC(=O)CCCCCCC/C=C\CCCCCCCC)cc4)CC3)CC2)cc1 [compound 43]	–	–	–	–	–	–
–	–	–	–	–	–	-5.07 mV	0.111	96.63 nm	CCCCCCCC/C=C\CCCCCCCC(=O)Oc1ccc(CC(=O)OCCC2CCN(CCSSCCN3CCC(CCOC(=O)Cc4ccc(OC(=O)CCCC(=O)N(CCCCCC)CCCCCC)cc4)CC3)CC2)cc1 [compound 124]	5.12E+09 photons/sec	3.37	–	–	–	–
–	–	–	-3.79 mV	0.082	122.1 nm	-2.39 mV	0.034	83.1 nm	CCCCCCCC/C=C\CCCCCCCC(=O)Oc1ccc(CC(=O)OCCC2CCN(CCSSCCN3CCC(CCOC(=O)Cc4ccc(OC(=O)CCCCCCCCCCC(CCCCCC)OC(=O)CCCCCCC)cc4)CC3)CC2)cc1 (stereo not shown) [compound 145]	6.65E+09 photons/sec	4.37	–	–	–	–
0.063	-4.31 mV	92.96 nm	-7.4 mV	0.15	133.6 nm	–	–	–	CCCCCCC#CCCOC(=O)CCCC(=O)Oc1ccc(CC(=O)OCCC2CCN(CCSSCCN3CCC(CCOC(=O)Cc4ccc(OC(=O)CCCCCCCC(=O)OC(CCCCCCCC)CCCCCCCC)cc4)CC3)CC2)cc1 [compound 148]	–	–	–	–	–	–
0.059	-6.03 mV	97.44 nm	-6.2 mV	0.15	123.1 nm	–	–	–	CCCCCCC#CCCOC(=O)CCCC(=O)Oc1ccc(CC(=O)OCCC2CCN(CCSSCCN3CCC(CCOC(=O)Cc4ccc(OC(=O)CCCCCCC/C=C\CCCCCCCC)cc4)CC3)CC2)cc1 [compound 149]	–	–	–	–	–	–

SMILES	PdI [1, 6]	zeta potential (mV) [1, 7]	particle size (nm) [1, 8]	zeta potential (mV) [4]	PdI [4]	particle size (nm) [4]	zeta potential (mV) [1, 9]	PdI [1, 10]	particle size (nm) [1, 10]	amount of luminescence (photons/sec) in liver [2]	relative amount of luminescence [2]	cumulative luciferase luminescence intensity (RLU) in 24 hr [3]	relative luminescence intensity [3]	amount of luminescence (photons/sec) in liver ([5]; tail vein, 4.5 hr after administration, LNP cationic lipid:DOPC:Chol:DMG-PEG2k = 52.5:7.5:40:1.5, prepared as in Experimental Example 6)	relative amount of luminescence ([5]; liver luminescence relative to cationic lipid of Comparative Example)
CCCCCCCC/C=C\CCCCCCCC(=O)Oc1ccc(CC(=O)OCCC2CCN(CCSSCCN3CCC(CCOC(=O)Cc4ccc(OC(=O)CCCCCCC/C=C\C[C@H](CCCCCC)OC(C)=O)cc4)CC3)CC2)cc1 [compound 1]	0.070	-3.79 mV	96.63 nm	–	–	–	–	–	–	3.94E+09 photons/sec	2.59	2.61E+07 RLU	1.42	–	–
CCCCCC[C@@H](C/C=C\CCCCCCCC(=O)Oc1ccc(CC(=O)OCCC2CCN(CCSSCCN3CCC(CCOC(=O)Cc4ccc(OC(=O)CCCC(=O)OC[C@H](COC(C)=O)OC(C)=O)cc4)CC3)CC2)cc1)OC(=O)CCCCC [compound 17]	0.061	-5.19 mV	127.90 nm	–	–	–	–	–	–	3.73E+09 photons/sec	2.45	5.18E+07 RLU	2.81	–	–
CCCCCCCC/C=C\CCCCCCCC(=O)Oc1ccc(CC(=O)OCCC2CCN(CCSSCCN3CCC(CCOC(=O)Cc4ccc(OC(=O)CCCC(=O)OC(CC(=O)OCCCC)(CC(=O)OCCCC)CC(=O)OCCCC)cc4)CC3)CC2)cc1 [compound 58]	–	–	–	-4.2 mV	0.071	90.0 nm	-3.5 mV	0.065	96.6 nm	–	–	–	–	1.72E+10 photons/sec	8.40
CCCCCCC#CCCOC(=O)CCCC(=O)Oc1ccc(CC(=O)OCCC2CCN(CCSSCCN3CCC(CCOC(=O)Cc4ccc(OC(=O)CCCC(=O)Oc5c(C)c(C)c6c(c5C)CCC(C)(CCCC(C)CCCC(C)CCCC(C)C)O6)cc4)CC3)CC2)cc1 (stereo not shown) [compound 150]	0.071	-2.14 mV	94.66 nm	-8.1 mV	0.11	130.2 nm	–	–	–	–	–	–	–	–	–
